Laboratory results as given in publication PMC10927578, “Structural basis for CFTR inhibition by CFTRinh-172” (Proceedings of the National Academy of Sciences of the …, 2024).

Key:
CFTR R347A = tested on: CFTR R347A; parameters: method as in PMID 18366345; conditions: R347A vs WT CFTR; cited from earlier work
cyst growth = tested on: cyst growth; parameters: method as in PMID 18385427; conditions: animal models of polycystic kidney disease; cited from earlier work
CFTR R347D = tested on: CFTR R347D; parameters: method as in PMID 18366345; conditions: cited from earlier work
WT CFTR [1] = target: T1, WT CFTR (Homo sapiens, UniProt P13569, C128S/C1344S/C1355S/C1395S/C1400S/C1410S/C1458S/C225S/C276S/C343S/C491S/C592M/C647S/C76L/C832S/C866S/S1435C/T388C); assay: smFRET imaging of NBD dimerization, WT CFTR; assay type: biochemical; conditions: 10 µM CFTRinh-172, 3 mM ATP
T1 construct: GFP (PreScission Protease-cleavable) (C); made in house; host or cells: HEK293S GnTI- suspension cells infected with BacMam baculovirus
T1 sequence (P13569 1-1480 with the stated changes): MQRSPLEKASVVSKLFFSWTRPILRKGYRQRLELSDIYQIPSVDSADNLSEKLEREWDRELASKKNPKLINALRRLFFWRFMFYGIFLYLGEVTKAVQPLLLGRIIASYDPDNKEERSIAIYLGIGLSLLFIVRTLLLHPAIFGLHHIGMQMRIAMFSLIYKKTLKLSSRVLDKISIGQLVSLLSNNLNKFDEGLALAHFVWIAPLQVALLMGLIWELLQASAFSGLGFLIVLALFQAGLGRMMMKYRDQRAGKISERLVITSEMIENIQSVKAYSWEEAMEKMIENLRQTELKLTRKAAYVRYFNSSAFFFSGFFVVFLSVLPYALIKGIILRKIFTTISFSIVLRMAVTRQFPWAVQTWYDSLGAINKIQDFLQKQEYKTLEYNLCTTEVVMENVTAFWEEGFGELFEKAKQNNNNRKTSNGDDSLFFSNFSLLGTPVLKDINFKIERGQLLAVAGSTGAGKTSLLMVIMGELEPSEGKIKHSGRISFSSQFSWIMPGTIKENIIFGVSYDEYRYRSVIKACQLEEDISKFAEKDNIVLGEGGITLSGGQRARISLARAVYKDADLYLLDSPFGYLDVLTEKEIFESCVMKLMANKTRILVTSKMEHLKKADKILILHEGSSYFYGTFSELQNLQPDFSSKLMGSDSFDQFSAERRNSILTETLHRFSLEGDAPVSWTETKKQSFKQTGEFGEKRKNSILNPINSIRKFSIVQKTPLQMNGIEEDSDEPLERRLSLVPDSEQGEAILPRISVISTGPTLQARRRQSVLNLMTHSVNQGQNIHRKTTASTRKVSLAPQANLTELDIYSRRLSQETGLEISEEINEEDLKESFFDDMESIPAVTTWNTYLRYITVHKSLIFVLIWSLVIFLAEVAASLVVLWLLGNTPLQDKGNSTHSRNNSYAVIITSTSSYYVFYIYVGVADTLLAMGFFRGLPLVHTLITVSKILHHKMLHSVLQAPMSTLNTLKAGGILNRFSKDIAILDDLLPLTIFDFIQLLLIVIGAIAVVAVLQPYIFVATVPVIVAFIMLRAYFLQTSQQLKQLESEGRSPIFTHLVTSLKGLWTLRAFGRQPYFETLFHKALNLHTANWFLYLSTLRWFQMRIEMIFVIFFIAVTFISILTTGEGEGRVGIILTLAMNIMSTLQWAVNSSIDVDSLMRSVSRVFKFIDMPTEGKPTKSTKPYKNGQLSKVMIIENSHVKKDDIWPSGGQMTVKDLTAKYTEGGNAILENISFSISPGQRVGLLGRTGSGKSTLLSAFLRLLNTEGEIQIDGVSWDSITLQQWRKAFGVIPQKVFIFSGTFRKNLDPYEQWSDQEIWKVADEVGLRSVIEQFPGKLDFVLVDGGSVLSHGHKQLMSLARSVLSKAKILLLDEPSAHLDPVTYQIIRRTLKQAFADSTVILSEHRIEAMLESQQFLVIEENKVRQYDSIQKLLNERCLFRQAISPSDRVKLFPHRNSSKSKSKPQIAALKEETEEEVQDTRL

CFTR (E1371Q) [2] = target: T2, CFTR (E1371Q) (Homo sapiens, UniProt P13569, E1371Q); assay: Inside-out excised patch macroscopic current recording, CFTR (E1371Q); assay type: biochemical; conditions: 10 µM CFTRinh-172; inside-out patches; PKA-phosphorylated, 3 mM ATP
T2 construct: expressed in transfected cells; host or cells: CHO-K1 (ATCC CCL-61)
T2 sequence (P13569 whole entry E1371Q): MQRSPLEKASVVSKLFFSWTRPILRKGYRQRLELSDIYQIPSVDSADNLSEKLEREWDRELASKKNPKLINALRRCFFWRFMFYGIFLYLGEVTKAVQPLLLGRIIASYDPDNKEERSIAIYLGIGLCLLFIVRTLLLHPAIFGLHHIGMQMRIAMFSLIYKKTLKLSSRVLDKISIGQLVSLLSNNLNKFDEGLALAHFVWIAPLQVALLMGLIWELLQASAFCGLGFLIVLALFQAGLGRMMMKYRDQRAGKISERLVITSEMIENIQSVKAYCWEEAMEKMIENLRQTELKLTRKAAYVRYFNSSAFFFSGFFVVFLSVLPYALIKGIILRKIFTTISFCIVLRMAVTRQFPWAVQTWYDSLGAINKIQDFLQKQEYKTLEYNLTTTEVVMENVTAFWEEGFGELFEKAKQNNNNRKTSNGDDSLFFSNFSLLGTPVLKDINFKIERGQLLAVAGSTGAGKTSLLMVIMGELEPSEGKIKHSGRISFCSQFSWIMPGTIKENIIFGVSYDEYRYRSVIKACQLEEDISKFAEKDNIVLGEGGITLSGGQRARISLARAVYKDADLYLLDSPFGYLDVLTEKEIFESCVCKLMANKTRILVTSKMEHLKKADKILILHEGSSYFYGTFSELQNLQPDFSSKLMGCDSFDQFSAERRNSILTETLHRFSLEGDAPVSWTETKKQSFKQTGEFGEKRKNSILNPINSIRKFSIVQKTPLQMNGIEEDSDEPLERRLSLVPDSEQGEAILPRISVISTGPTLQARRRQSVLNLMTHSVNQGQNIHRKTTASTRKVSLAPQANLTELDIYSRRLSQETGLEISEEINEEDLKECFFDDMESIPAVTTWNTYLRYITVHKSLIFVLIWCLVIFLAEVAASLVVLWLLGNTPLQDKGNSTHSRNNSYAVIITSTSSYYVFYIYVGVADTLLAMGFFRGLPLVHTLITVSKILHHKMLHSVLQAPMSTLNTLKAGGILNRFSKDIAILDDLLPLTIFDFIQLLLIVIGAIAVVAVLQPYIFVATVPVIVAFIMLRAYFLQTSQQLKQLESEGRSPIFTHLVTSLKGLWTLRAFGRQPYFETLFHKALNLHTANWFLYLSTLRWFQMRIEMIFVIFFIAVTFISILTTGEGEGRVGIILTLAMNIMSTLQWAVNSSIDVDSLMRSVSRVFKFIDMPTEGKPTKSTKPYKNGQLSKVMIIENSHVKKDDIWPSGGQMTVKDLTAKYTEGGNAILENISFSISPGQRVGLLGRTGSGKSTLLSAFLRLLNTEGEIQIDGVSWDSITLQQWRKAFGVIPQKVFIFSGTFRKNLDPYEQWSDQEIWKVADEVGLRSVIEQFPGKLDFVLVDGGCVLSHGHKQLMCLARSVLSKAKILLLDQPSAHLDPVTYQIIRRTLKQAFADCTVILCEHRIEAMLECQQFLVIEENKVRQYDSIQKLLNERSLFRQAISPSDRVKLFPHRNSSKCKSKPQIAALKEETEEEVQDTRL

WT CFTR [3] = target: T3, WT CFTR (Homo sapiens, UniProt P13569); assay: Single-channel recording in synthetic planar lipid bilayer, WT CFTR; assay type: biochemical
T3 construct: GFP (PreScission Protease-cleavable) (C, cleaved yes); made in house; host or cells: HEK293S GnTI- suspension cells infected with BacMam baculovirus
T3 sequence (P13569 whole entry): as the sequence (P13569 whole entry E1371Q) above, with Q1371E counted along it

WT CFTR [4] = target: T3, WT CFTR; assay: Inside-out excised patch macroscopic current recording, WT CFTR; assay type: biochemical; conditions: inside-out patches, 3 mM ATP
[5] = tested on: cholera toxin-induced intestinal fluid secretion; conditions: in vivo; cited from earlier work
CFTR (E1371Q) [6] = target: T4, CFTR (E1371Q) (Homo sapiens, UniProt P13569, C128S/C1344S/C1355S/C1395S/C1400S/C1410S/C1458S/C225S/C276S/C343S/C491S/C592M/C647S/C76L/C832S/C866S/E1371Q/S1435C/T388C); assay: smFRET imaging of NBD dimerization, CFTR (E1371Q); assay type: biochemical; conditions: with CFTRinh-172
T4 construct: GFP (PreScission Protease-cleavable) (C); made in house; host or cells: HEK293S GnTI- suspension cells infected with BacMam baculovirus
T4 sequence (P13569 1-1480 with the stated changes): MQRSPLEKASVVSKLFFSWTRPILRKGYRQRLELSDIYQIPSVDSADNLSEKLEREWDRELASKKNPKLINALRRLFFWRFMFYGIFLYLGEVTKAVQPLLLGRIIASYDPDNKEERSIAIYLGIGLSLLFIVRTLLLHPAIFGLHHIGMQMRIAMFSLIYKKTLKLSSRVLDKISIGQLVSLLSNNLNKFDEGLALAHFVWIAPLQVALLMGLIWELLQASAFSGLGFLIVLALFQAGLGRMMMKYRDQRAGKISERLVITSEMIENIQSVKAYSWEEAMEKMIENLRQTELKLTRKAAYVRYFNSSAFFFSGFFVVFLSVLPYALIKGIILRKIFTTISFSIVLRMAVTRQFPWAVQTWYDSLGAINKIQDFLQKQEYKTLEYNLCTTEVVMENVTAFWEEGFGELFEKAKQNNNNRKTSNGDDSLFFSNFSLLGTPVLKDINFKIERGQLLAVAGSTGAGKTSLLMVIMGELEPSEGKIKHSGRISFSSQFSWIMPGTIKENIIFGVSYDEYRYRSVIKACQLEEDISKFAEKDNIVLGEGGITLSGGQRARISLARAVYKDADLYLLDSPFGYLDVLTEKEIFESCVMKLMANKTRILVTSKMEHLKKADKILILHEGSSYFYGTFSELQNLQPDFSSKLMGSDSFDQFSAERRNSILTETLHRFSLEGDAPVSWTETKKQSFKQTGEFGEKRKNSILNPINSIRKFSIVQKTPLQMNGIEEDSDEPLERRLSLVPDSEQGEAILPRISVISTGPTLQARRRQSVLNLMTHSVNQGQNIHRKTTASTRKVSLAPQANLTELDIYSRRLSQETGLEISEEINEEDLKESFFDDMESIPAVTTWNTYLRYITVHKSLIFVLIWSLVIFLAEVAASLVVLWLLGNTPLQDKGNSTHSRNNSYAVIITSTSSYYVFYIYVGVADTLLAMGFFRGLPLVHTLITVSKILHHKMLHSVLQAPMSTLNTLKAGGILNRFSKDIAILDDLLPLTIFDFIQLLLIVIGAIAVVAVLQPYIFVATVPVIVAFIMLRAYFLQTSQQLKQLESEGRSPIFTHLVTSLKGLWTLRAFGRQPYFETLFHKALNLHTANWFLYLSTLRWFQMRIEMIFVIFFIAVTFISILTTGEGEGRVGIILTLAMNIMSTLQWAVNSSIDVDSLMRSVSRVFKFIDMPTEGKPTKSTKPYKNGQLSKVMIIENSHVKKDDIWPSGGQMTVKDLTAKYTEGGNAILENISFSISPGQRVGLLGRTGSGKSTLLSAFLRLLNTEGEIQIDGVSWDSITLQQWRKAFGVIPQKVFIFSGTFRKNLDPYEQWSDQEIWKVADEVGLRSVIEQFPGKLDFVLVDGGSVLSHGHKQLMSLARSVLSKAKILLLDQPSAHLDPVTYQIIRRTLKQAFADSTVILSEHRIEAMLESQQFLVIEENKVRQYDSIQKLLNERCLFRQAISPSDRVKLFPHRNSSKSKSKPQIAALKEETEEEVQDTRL

CFTR (E1371Q) [7] = target: T2, CFTR (E1371Q); assay: Single-channel recording in synthetic planar lipid bilayer, CFTR (E1371Q); assay type: biochemical; conditions: 10 µM CFTRinh-172, 3 mM ATP, -150 mV, mean and SE, 0.79 ± 0.03 without inhibitor
T1142I CFTR = target: T5, T1142I CFTR (Homo sapiens, UniProt P13569, T1142I); assay: Inside-out excised patch titration, T1142I CFTR; assay type: biochemical; conditions: inside-out patches, 3 mM ATP, Hill coefficient fixed to 1
T5 construct: expressed in transfected cells; host or cells: CHO-K1 (ATCC CCL-61)
T5 sequence (P13569 whole entry T1142I): as the sequence (P13569 whole entry E1371Q) above, with T1142I, Q1371E counted along it

K95A CFTR = target: T6, K95A CFTR (Homo sapiens, UniProt P13569, K95A); assay: Inside-out excised patch titration, K95A CFTR; assay type: biochemical; conditions: inside-out patches, 3 mM ATP, Hill coefficient fixed to 1
T6 construct: expressed in transfected cells; host or cells: CHO-K1 (ATCC CCL-61)
T6 sequence (P13569 whole entry K95A): as the sequence (P13569 whole entry E1371Q) above, with K95A, Q1371E counted along it

[8] = target: T7, PKA-phosphorylated WT CFTR (Homo sapiens, UniProt P13569); assay: Steady-state ATP hydrolysis, NADH-coupled assay; assay type: biochemical; conditions: 10 µM CFTRinh-172
T7 construct: GFP (PreScission Protease-cleavable) (C, cleaved yes); made in house; host or cells: HEK293S GnTI- suspension cells infected with BacMam baculovirus
T7 sequence (P13569 whole entry): as the sequence (P13569 whole entry E1371Q) above, with Q1371E counted along it

S1141A CFTR = target: T8, S1141A CFTR (Homo sapiens, UniProt P13569, S1141A); assay: Inside-out excised patch titration, S1141A CFTR; assay type: biochemical; conditions: inside-out patches, 3 mM ATP
T8 construct: expressed in transfected cells; host or cells: CHO-K1 (ATCC CCL-61)
T8 sequence (P13569 whole entry S1141A): as the sequence (P13569 whole entry E1371Q) above, with S1141A, Q1371E counted along it

CFTR = tested on: CFTR; parameters: method as in PMID 36949202; conditions: cited from earlier work; for effect on channel activity: by increasing pore opening while the NBDs are dimerized

| Compound | decrease in potency on substitution of R347 with alanine (CFTR R347A) | cyst growth (cyst growth) | effect of R347D substitution on inhibition (CFTR R347D) | effect on dwell time of the NBD-dimerized state (WT CFTR [1]) | effect on probability of NBD dimerization (WT CFTR [1]) | inhibition of macroscopic current relative to WT CFTR (CFTR (E1371Q) [2]) | open probability (WT CFTR [3]; 10 µM CFTRinh-172, 3 mM ATP, -150 mV, mean and SE, 0.21 ± 0.05 without inhibitor) | mean open dwell time (WT CFTR [3]; with CFTRinh-172, 3 mM ATP, 487 ± 92 ms without inhibitor) [ms] | reduction of macroscopic current (WT CFTR [4]; 10 µM CFTRinh-172, PKA-phosphorylated) [%] | IC50 (WT CFTR [4]; WT CFTR, Hill coefficient fixed to 1) [µM] | cholera toxin-induced intestinal fluid secretion [5] | effect on conformational dynamics (CFTR (E1371Q) [6]) | open probability (CFTR (E1371Q) [7]) | IC50 (T1142I CFTR) [µM] | IC50 (K95A CFTR) [µM] | change of Michaelis-Menten constant (Km) for ATP [8] | saturating ATP turnover (kcat) ([8]; 22.0 ± 2.2 without inhibitor) [ATP/protein/min] | effect of S1141A substitution on inhibitory potency (S1141A CFTR) | effect on channel activity (CFTR) | effect on ATP turnover (CFTR) |
| --- | --- | --- | --- | --- | --- | --- | --- | --- | --- | --- | --- | --- | --- | --- | --- | --- | --- | --- | --- | --- |
| O=C(O)c1ccc(/C=C2\SC(=S)N(c3cccc(C(F)(F)F)c3)C2=O)cc1 [CFTRinh-172] | over 30 fold | suppress cyst growth | nearly eliminated its inhibitory effect | did not significantly affect | did not significantly affect | comparable level of inhibition | 0.007 ± 0.003 | 109 ± 14 | 96 | 0.6 ± 0.1 | block cholera toxin-induced intestinal fluid secretion | did not affect | 0.0011 ± 0.0004 | 5.3 ± 3.1 | 3.5 ± 0.9 | not significantly changed | 5.2 ± 1.0 | no effect on inhibitory potency |  |  |
| CC(C)(C)c1cc(C(C)(C)C)c(NC(=O)c2c[nH]c3ccccc3c2=O)cc1O [Ivacaftor, N-(2,4-Di-tert-butyl-5-hydroxyphenyl)-4-oxo-1,4-dihydroquinoline-3-carboxamide] |  |  |  |  |  |  |  |  |  |  |  |  |  |  |  |  |  |  | enhance channel activity | increase ATP turnover |
| CC1(C)Cc2c(sc(NC(=O)c3ccn[nH]3)c2C(N)=O)C(C)(C)O1 [GLPG1837, N-(3-Carbamoyl-5,5,7,7-tetramethyl-5,7-dihydro-4H-thieno[2,3-c]pyran-2-yl)-lH-pyrazole-5-carboxamide] |  |  |  |  |  |  |  |  |  |  |  |  |  |  |  |  |  |  | enhance channel activity | increase ATP turnover |
